Assay: xn = mol fraction of the nth substance listed
Conditions: Liquid; for viscosity: Oscillating disk viscometry; for mass density: Vibrating tube method

NCCO [2-aminoethan-1-ol] + O
101.3 kPa
Conditions	mass density, x1 = 0.0394 [kg/m3]	mass density, x1 = 0.087 [kg/m3]	mass density, x1 = 0.1456 [kg/m3]	mass density, x1 = 0.2197 [kg/m3]	viscosity, x1 = 0.0394 [mPa·s]	viscosity, x1 = 0.087 [mPa·s]	viscosity, x1 = 0.1456 [mPa·s]	viscosity, x1 = 0.2197 [mPa·s]
293.15 K	1005.3	1011.8	1018.9	1025.7	1.19	2.1	3.06	5.58
298.15 K	1003.8	1009.9	1016.3	1022.7	1.06	1.71	2.69	4.67
303.15 K	1002.1	1007.7	1013.7	1019.7	0.94	1.47	2.29	3.91
308.15 K	1000.3	1005.6	1011.2	1016.8	0.85	1.3	1.91	3.28
313.15 K	998.2	1003.2	1008.5	1013.6	0.76	1.15	1.69	2.77
318.15 K	996	1000.7	1005.7	1010.5	0.69	1.03	1.5	2.39
323.15 K	993.8	998.2	1002.8	1007.3	0.63	0.93	1.33	2.11
328.15 K	988.9	995.8	1000.1	1004.4	0.58	0.85	1.17	1.85
333.15 K	987.2	995.1	999.3	1003.2	0.54	0.79	1.05	1.65

CCCCn1cc[n+](C)c1.F[B-](F)(F)F [1-butyl-3-methylimidazolium tetrafluoroborate] + O
Conditions	mass density, x1 = 0.01 [kg/m3]	mass density, x1 = 0.0227 [kg/m3]	mass density, x1 = 0.0392 [kg/m3]	mass density, x1 = 0.0616 [kg/m3]	mass density, x1 = 0.0938 [kg/m3]	viscosity, x1 = 0.01 [mPa·s]	viscosity, x1 = 0.0227 [mPa·s]	viscosity, x1 = 0.0392 [mPa·s]	viscosity, x1 = 0.0616 [mPa·s]	viscosity, x1 = 0.0938 [mPa·s]
293.15 K, 101 kPa	–	–	–	–	–	1.07	1.35	1.84	2.28	3.04
293.15 K, 101.3 kPa	1018.9	1038.1	1060.4	1079.5	1103.7	–	–	–	–	–
298.15 K, 101 kPa	–	–	–	–	–	0.95	1.19	1.6	1.98	2.69
298.15 K, 101.3 kPa	1017.1	1036	1058	1076.7	1100.6	–	–	–	–	–
303.15 K, 101 kPa	–	–	–	–	–	0.84	1.05	1.4	1.75	2.34
303.15 K, 101.3 kPa	1015.2	1033.5	1055.3	1073.6	1097.2	–	–	–	–	–
308.15 K, 101 kPa	–	–	–	–	–	0.76	0.95	1.25	1.56	2.06
308.15 K, 101.3 kPa	1013.2	1031.3	1052.6	1070.7	1093.9	–	–	–	–	–
313.15 K, 101 kPa	–	–	–	–	–	0.69	0.86	1.13	1.4	1.84
313.15 K, 101.3 kPa	1010.9	1028.6	1049.8	1067.5	1090.5	–	–	–	–	–
318.15 K, 101 kPa	–	–	–	–	–	0.64	0.79	1.02	1.27	1.66
318.15 K, 101.3 kPa	1008.6	1025.9	1046.9	1064.3	1087.4	–	–	–	–	–
323.15 K, 101 kPa	–	–	–	–	–	0.59	0.74	0.94	1.16	1.48
323.15 K, 101.3 kPa	1006.1	1023.4	1044	1061.2	1084.1	–	–	–	–	–
328.15 K, 101 kPa	–	–	–	–	–	0.55	0.69	0.88	1.07	1.31
328.15 K, 101.3 kPa	1001.8	1019.8	1041.4	1058.3	1080.9	–	–	–	–	–
333.15 K, 101 kPa	–	–	–	–	–	0.53	0.62	0.82	0.99	1.26
333.15 K, 101.3 kPa	999.2	1017.6	1040.6	1057.4	1079.9	–	–	–	–	–
